# Patent publication US9776962B2, “Aromatic compounds with GPR40 agonistic activity” (TAKEDA PHARMACEUTICAL COMPANY LIMITED, priority 2013, dated 2017)
# Molecular target: T1, human GPR40 (Homo sapiens, UniProt O14842)
# T1 construct: expressed in transfected cells
# Experiment: Evaluation of human GPR40 agonist activity with increase in intracellular Ca2+ concentration as an index (FLIPR)
# Format: cell-based
# Conditions: test compound 1 μM; CHO(dhfr−) cells stably expressing human GPR40; 100% = 10 μM compound of Example 153, 0% = DMSO
# In short: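 CHO(dhfr−) cells stably expressing full-length human GPR40 were loaded with Ca2+ probe for 1 h at room temperature, then given test compound at 1 μM final. Fluorescence was followed on FLIPR, with activity scaled to a reference agonist at 10 μM (100%) and DMSO (0%).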
# T1 sequence (O14842 whole entry): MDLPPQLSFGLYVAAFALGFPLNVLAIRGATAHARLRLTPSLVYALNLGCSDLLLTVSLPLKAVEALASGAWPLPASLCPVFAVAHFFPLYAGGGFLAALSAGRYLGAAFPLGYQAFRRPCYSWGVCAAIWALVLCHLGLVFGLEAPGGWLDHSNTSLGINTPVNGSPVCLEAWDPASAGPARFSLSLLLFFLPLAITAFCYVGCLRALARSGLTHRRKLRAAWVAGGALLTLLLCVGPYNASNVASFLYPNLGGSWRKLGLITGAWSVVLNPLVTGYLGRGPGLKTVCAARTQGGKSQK
row,activation at 1 µM [%],Compound
1,94,"Cc1ccc(C(=O)N(CC(C)(C)C)c2cccc(C)n2)c(N2CCC(COc3cc(C(CC(=O)O)C4CC4)ccn3)CC2)c1 (centres unmarked) [Example 258, 3-cyclopropyl-3-(2-((1-(2-((2,2-dimethylpropyl)(6-methylpyridin-2-yl)carbamoyl)-5-methylphenyl)piperidin-4-yl)methoxy)pyridin-4-yl)propanoic acid]"
2,83,"CCc1ccc(C(=O)N(CC(C)(C)C)c2ccccn2)c(N2CCC(COc3cccc(C(CC(=O)O)C4CC4)c3)CC2)c1 (centres unmarked) [Example 56, 3-cyclopropyl-3-(3-((1-(2-((2,2-dimethylpropyl)(pyridin-2-yl)carbamoyl)-5-ethylphenyl)piperidin-4-yl)methoxy)phenyl)propanoic acid]"
3,52,"CCc1ccc(C(=O)N(CC(C)(C)C)c2ccccn2)c(N2CCC(COc3cccc(C(CC(=O)O)C4CC4)c3)CC2)n1 (centres unmarked) [Example 60, 3-cyclopropyl-3-(3-((1-(3-((2,2-dimethylpropyl)(pyridin-2-yl)carbamoyl)-6-ethylpyridin-2-yl)piperidin-4-yl)methoxy)phenyl)propanoic acid]"
4,91,"COc1ccc(C(=O)N(CC(F)(F)F)c2cncc(C(F)(F)F)c2)c(N2CCC(COc3cc(C(CC(=O)O)C4CC4)ccn3)CC2)c1 (centres unmarked) [Example 236, 3-cyclopropyl-3-(2-((1-(5-methoxy-2-((2,2,2-trifluoroethyl) (5-(trifluoromethyl)pyridin-3-yl)carbamoyl)-phenyl)piperidin-4-yl)methoxy)pyridin-4-yl)propanoic acid]"
5,95,"COc1ccc(C(=O)N(CC2CC2)c2cc(C)ccn2)c(N2CCC(COc3cc(C(CC(=O)O)C4CC4)ccn3)CC2)c1 (centres unmarked) [Example 125, 3-cyclopropyl-3-(2-((1-(2-((cyclopropylmethyl)(4-methylpyridin-2-yl)carbamoyl)-5-methoxyphenyl)piperidin-4-yl)methoxy)pyridin-4-yl)propanoic acid]"
6,95,"COc1ccc(C(=O)Nc2cccc(C)n2)c(N2CCC(COc3cc(C(CC(=O)O)C4CC4)ccn3)CC2)c1 (centres unmarked) [Example 241, 3-cyclopropyl-3-(2-((1-(5-methoxy-2-((6-methylpyridin-2-yl)-carbamoyl)phenyl)-piperidin-4-yl)methoxy)pyridin-4-yl)propanoic acid]"
7,81,"COc1ccc(C(=O)NCC(F)(F)C(F)(F)F)c(N2CCC(COc3cc(C(CC(=O)O)C4CC4)ccn3)CC2)c1 (centres unmarked) [Example 129, 3-cyclopropyl-3-(2-((1-(5-methoxy-2-((2,2,3,3,3-pentafluoropropyl)carbamoyl)phenyl)piperidin-4-yl)methoxy)pyridin-4-yl)propanoic acid]"
8,79,"COc1ccc(C(=O)N(CC2(F)CC2)c2ccccn2)c(N2CCC(COc3cc(C(CC(=O)O)C4CC4)ccn3)CC2)c1 (centres unmarked) [Example 144, 3-cyclopropyl-3-(2-((1-(2-(((1-fluorocyclopropyl)methyl)(pyridin-2-yl)carbamoyl)-5-methoxyphenyl)piperidin-4-yl)methoxy)pyridin-4-yl)propanoic acid]"
9,96,"COc1ccc(C(=O)N(CC(C)C)c2ccc(C)cn2)c(N2CCC(COc3cc(C(CC(=O)O)C4CC4)ccn3)CC2)c1 (centres unmarked) [Example 115, 3-cyclopropyl-3-(2-((1-(5-methoxy-2-((2-methylpropyl)(5-methylpyridin-2-yl)carbamoyl)phenyl)piperidin-4-yl)methoxy)pyridin-4-yl)propanoic acid]"
10,104,"COc1ccc(C(=O)N(CC(C)(C)C)c2cccc(C)n2)c(N2CCC(COc3cc(C(CC(=O)O)C4CC4)c(F)cn3)CC2)c1 (centres unmarked) [Example 274, 3-cyclopropyl-3-(2-((1-(2-((2,2-dimethylpropyl)-(6-methylpyridin-2-yl)carbamoyl)-5-methoxyphenyl)piperidin-4-yl)methoxy)-5-fluoropyridin-4-yl)propanoic acid]"
11,92,"COc1ccc(C(=O)N(CC(C)(C)C)c2ccccn2)c(N2CCC(COc3cccc(C(CC(=O)O)C4CC4)c3)C(F)(F)C2)c1 [Example 281, (3S)-cyclopropyl-3-(3-((1-(2-((2,2-dimethylpropyl)-(pyridin-2-yl)carbamoyl)-5-methoxyphenyl)-3,3-difluoropiperidin-4-yl)methoxy)phenyl)-propanoic acid]"
12,97,"COc1ccc(C(=O)N(c2ccccn2)C2CC(F)(F)C2)c(N2CCC(COc3cc(C(CC(=O)O)C4CC4)ccn3)CC2)c1 (centres unmarked) [Example 165, 3-cyclopropyl-3-(2-((1-(2-((3,3-difluorocyclobutyl)(pyridin-2-yl)carbamoyl)-5-methoxyphenyl)piperidin-4-yl)methoxy)pyridin-4-yl)propanoic acid]"
13,73,"COc1ccc(C(=O)N(CCC#N)c2ccccc2)c(N2CCC(COc3cccc(C(CC(=O)O)C4CC4)c3)CC2)c1 (centres unmarked) [Example 6, 3-(3-((1-(2-((2-cyanoethyl)(phenyl)carbamoyl)-5-methoxyphenyl)piperidin-4-yl)methoxy)phenyl)-3-cyclopropylpropanoic acid]"
14,100,"COc1ccc(C(=O)N(C)CC(F)(F)C(F)(F)F)c(N2CCC(COc3cc(C(CC(=O)O)C4CC4)ccn3)CC2)c1 (centres unmarked) [Example 130, 3-cyclopropyl-3-(2-((1-(5-methoxy-2-(methyl(2,2,3,3,3-pentafluoropropyl)carbamoyl)phenyl)piperidin-4-yl)methoxy)pyridin-4-yl)propanoic acid]"
15,84,"CCc1ccc(C(=O)N(CC(C)(C)C)c2cccc(C)n2)c(N2CCC(COc3cccc(C(CC(=O)O)C4CC4)c3)CC2)c1 (centres unmarked) [Example 55, 3-cyclopropyl-3-(3-((1-(2-((2,2-dimethylpropyl)(6-methylpyridin-2-yl)carbamoyl)-5-ethylphenyl)piperidin-4-yl)methoxy)phenyl)propanoic acid]"
16,98,"COc1ccc(C(=O)N(CC(C)(C)C)c2ncccn2)c(N2CCC(COc3cc(C(CC(=O)O)C4CC4)ccn3)CC2)c1 (centres unmarked) [Example 156, 3-cyclopropyl-3-(2-((1-(2-((2,2-dimethylpropyl)(pyrimidin-2-yl)carbamoyl)-5-methoxyphenyl)piperidin-4-yl)methoxy)pyridin-4-yl)propanoic acid]"
17,97,"COc1ccc(C(=O)N(CC(C)(C)OC(C)C)c2ccccn2)c(N2CCC(COc3cc(C(CC(=O)O)C4CC4)ccn3)CC2)c1 (centres unmarked) [Example 160, 3-cyclopropyl-3-(2-((1-(2-((2-isopropoxy-2-methylpropyl)(pyridin-2-yl)carbamoyl)-5-methoxyphenyl)piperidin-4-yl)methoxy)pyridin-4-yl)propanoic acid]"
18,102,"COc1ccc(C(=O)N2CC(F)(F)OC(F)(F)C2)c(N2CCC(COc3cc(C(CC(=O)O)C4CC4)ccn3)CC2)c1 (centres unmarked) [Example 202, 3-cyclopropyl-3-(2-((1-(5-methoxy-2-((2,2,6,6-tetrafluoromorpholin-4-yl)carbonyl)phenyl)piperidin-4-yl)methoxy)pyridin-4-yl)propanoic acid]"
19,98,"COc1ccc(C(=O)N(CC(F)(F)F)c2cc(C)ccn2)c(N2CCC(COc3cc(C(CC(=O)O)OC)ccn3)CC2)c1 (centres unmarked) [Example 271, 3-methoxy-3-(2-((1-(5-methoxy-2-((4-methylpyridin-2-yl)(2,2,2-trifluoroethyl)carbamoyl)phenyl)piperidin-4-yl)methoxy)pyridin-4-yl)propanoic acid]"
20,85,"COc1ccc(C(=O)N(CC(C)(C)C)c2cc(C)cnn2)c(N2CCC(COc3cc(C(CC(=O)O)C4CC4)ccn3)CC2)c1 (centres unmarked) [Example 232, 3-cyclopropyl-3-(2-((1-(2-((2,2-dimethylpropyl) (5-methylpyridazin-3-yl)carbamoyl)-5-methoxyphenyl)piperidin-4-yl)methoxy)pyridin-4-yl)propanoic acid]"
21,94,"COc1ccc(C(=O)N(CC(C)C)c2ccnc(OC)c2)c(N2CCC(COc3cc(C(CC(=O)O)C4CC4)ccn3)CC2)c1 (centres unmarked) [Example 127, 3-cyclopropyl-3-(2-((1-(5-methoxy-2-((2-methoxypyridin-4-yl)(2-methylpropyl)carbamoyl)phenyl)piperidin-4-yl)methoxy)pyridin-4-yl)propanoic acid]"
22,77,"COc1ccc(C(=O)N(C)C2CCN(CC(F)(F)F)CC2)c(N2CCC(COc3cc(C(CC(=O)O)C4CC4)ccn3)CC2)c1 (centres unmarked) [Example 194, 3-cyclopropyl-3-(2-((1-(5-methoxy-2-(methyl(1-(2,2,2-trifluoroethyl)piperidin-4-yl)carbamoyl)phenyl)piperidin-4-yl)methoxy)pyridin-4-yl)propanoic acid]"
23,94,"Cc1cccc(N(CC(C)(C)C)C(=O)c2ccc(Br)cc2N2CCC(COc3cc(C(CC(=O)O)C4CC4)ccn3)CC2)n1 (centres unmarked) [Example 263, 3-(2-((1-(5-bromo-2-((2,2-dimethylpropyl)(6-methylpyridin-2-yl)carbamoyl)phenyl)piperidin-4-yl)methoxy)pyridin-4-yl)-3-cyclopropylpropanoic acid]"
24,82,"COc1ccc(C(=O)N(c2ccccn2)C(C)C)c(N2CCC(COc3cc(C(CC(=O)O)C4CC4)ccn3)CC2)c1 (centres unmarked) [Example 146, 3-cyclopropyl-3-(2-((1-(5-methoxy-2-(propan-2-yl(pyridin-2-yl)carbamoyl)phenyl)piperidin-4-yl)methoxy)pyridin-4-yl)propanoic acid]"
25,99,"COc1ccc(C(=O)N(CC(F)(F)F)c2cc(C)ncn2)c(N2CCC(COc3cc(C(CC(=O)O)C4CC4)ccn3)CC2)c1 (centres unmarked) [Example 240, 3-cyclopropyl-3-(2-((1-(5-methoxy-2-((6-methylpyrimidin-4-yl)-(2,2,2-trifluoroethyl)-carbamoyl)phenyl)-piperidin-4-yl)methoxy)-pyridin-4-yl)propanoic acid]"
26,84,"COc1ccc(C(=O)N(CC(C)(C)C)c2cccnn2)c(N2CCC(COc3cc(C(CC(=O)O)C4CC4)ccn3)CC2)c1 (centres unmarked) [Example 179, 3-cyclopropyl-3-(2-((1-(2-((2,2-dimethylpropyl)(pyridazin-3-yl)carbamoyl)-5-methoxyphenyl)piperidin-4-yl)methoxy)pyridin-4-yl)propanoic acid]"
